Experimental data reported in patent US10357484B2, “Heterocyclic compound” (Takeda Pharmaceutical Company Limited, priority 2015, dated 2019).

Assays:
Assay type in all cases: biochemical
[1] = biological target: T1, HDAC1 enzyme (Homo sapiens, UniProt Q13547); assay: HDAC1 enzyme inhibitory assay (HDAC-Glo I/II Assay kit); conditions: 1 μM test compound; wells without enzyme = 100% inhibition; read-out: HDAC1 inhibitory rate (%) (1 μM)
T1 construct: transducing full length HDAC1 and HDAC6 genes into Sf-9 insect cells; GST; purchased SignalChem; host or cells: Sf-9 insect cells
T1 sequence (Q13547 whole entry): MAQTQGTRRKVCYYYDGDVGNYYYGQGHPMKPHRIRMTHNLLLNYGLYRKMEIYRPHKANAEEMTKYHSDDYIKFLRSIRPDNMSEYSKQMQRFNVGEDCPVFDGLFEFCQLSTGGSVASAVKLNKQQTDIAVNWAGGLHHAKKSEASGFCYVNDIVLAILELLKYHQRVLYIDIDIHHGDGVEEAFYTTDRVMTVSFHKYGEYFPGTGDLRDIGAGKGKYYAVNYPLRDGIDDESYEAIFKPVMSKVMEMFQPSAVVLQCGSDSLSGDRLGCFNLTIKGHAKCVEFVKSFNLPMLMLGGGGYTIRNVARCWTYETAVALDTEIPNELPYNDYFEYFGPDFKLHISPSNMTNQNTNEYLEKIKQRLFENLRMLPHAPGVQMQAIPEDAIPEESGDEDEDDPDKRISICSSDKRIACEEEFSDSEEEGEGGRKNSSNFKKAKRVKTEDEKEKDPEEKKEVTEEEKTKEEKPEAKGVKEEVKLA
Procedure: (§1) HDAC1/6 Enzyme Inhibitory Assay
(§2) HDAC1 enzyme and HDAC6 enzyme each prepared by transducing full length HDAC1 and HDAC6 genes into Sf-9 insect cells and purifying by GST affinity column were purchased from SignalChem. Using these enzymes, HDAC1 and/or HDAC6 enzyme inhibitory activities of the compound of the present invention were evaluated. Enzymes were used after preserved at −70° C. HDAC1 or HDAC6 enzyme inhibitory activity of the compound of the present invention was measured using HDAC-Glo™ I/II Assay kit (Promega) according to the following experimental method. The test compound diluted with assay buffer (24 mM Tris-HCl (pH 7.5), 1 mM MgCl2, 0.35 mM KCl, 135 mM NaCl, 0.6 mM Glutathione, 0.01% Tween-20) was added to a 384-well plate by each 2 μL. Then, HDAC1 or HDAC6 enzyme solution diluted with assay buffer was added thereto by each 4 μL, and the plate was incubated at room temperature for 60 min. After incubated, HDAC substrate-Developer solution prepared according to Promega protocol attached to the assay kit was added to the 384-well plate by each 2 μL, and the enzyme reaction was started. After reacting at room temperature for 20 min, luminescence level was measured using plate reader Envision (PerkinElmer). The inhibitory activity of each compound was calculated as a relative activity value when luminescence level in wells without enzyme is considered as 100% inhibition.

[2] = biological target: T2, HDAC6 enzyme (Homo sapiens, UniProt Q9UBN7); assay: HDAC6 enzyme inhibitory assay (HDAC-Glo I/II Assay kit); conditions: 1 μM test compound; wells without enzyme = 100% inhibition; read-out: HDAC6 inhibitory rate (%) (1 μM)
T2 construct: transducing full length HDAC1 and HDAC6 genes into Sf-9 insect cells; GST; purchased SignalChem; host or cells: Sf-9 insect cells
T2 sequence (Q9UBN7 1-1215): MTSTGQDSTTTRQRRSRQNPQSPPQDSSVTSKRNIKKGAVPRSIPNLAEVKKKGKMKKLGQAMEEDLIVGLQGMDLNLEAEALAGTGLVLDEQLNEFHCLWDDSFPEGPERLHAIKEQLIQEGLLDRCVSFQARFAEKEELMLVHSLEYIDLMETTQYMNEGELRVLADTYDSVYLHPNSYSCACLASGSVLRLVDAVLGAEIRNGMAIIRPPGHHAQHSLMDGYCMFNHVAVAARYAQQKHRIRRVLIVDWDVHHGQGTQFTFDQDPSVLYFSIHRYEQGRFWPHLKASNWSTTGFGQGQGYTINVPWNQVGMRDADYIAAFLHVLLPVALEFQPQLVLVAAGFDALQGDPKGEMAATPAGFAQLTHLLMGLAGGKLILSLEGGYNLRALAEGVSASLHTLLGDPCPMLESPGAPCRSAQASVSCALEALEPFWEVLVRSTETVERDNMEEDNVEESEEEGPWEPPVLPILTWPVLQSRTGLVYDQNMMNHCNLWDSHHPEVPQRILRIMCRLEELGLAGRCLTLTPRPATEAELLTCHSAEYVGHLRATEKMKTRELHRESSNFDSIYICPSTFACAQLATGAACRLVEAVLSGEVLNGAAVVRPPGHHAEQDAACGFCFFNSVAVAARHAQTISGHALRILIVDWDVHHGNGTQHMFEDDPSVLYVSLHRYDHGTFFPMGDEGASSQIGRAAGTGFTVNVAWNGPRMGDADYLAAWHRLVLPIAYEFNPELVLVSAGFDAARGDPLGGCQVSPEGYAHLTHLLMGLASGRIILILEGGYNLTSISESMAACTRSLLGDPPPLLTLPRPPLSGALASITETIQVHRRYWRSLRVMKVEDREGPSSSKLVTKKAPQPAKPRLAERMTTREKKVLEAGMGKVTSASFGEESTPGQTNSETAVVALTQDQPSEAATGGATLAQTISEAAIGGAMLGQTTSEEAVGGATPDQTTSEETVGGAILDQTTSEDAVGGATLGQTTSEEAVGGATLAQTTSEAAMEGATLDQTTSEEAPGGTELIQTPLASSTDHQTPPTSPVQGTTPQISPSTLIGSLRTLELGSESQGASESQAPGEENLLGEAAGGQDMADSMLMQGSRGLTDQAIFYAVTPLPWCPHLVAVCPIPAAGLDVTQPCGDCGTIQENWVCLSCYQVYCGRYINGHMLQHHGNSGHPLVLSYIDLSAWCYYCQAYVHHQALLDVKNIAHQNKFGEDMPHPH
Procedure: as §1, §2

[3] = biological target: T3, HDAC9 enzyme (Homo sapiens, UniProt Q9UKV0); assay: HDAC9 enzyme inhibitory assay (HDAC-Glo class IIa); conditions: 1 μM test compound; wells without enzyme = 100% inhibition; read-out: HDAC9 inhibitory rate (%) (1 μM)
T3 construct: transducing full length HDAC9 gene into Sf-9 insect cells; made in house; host or cells: Sf-9 insect cells
T3 sequence (Q9UKV0 whole entry, species assumed): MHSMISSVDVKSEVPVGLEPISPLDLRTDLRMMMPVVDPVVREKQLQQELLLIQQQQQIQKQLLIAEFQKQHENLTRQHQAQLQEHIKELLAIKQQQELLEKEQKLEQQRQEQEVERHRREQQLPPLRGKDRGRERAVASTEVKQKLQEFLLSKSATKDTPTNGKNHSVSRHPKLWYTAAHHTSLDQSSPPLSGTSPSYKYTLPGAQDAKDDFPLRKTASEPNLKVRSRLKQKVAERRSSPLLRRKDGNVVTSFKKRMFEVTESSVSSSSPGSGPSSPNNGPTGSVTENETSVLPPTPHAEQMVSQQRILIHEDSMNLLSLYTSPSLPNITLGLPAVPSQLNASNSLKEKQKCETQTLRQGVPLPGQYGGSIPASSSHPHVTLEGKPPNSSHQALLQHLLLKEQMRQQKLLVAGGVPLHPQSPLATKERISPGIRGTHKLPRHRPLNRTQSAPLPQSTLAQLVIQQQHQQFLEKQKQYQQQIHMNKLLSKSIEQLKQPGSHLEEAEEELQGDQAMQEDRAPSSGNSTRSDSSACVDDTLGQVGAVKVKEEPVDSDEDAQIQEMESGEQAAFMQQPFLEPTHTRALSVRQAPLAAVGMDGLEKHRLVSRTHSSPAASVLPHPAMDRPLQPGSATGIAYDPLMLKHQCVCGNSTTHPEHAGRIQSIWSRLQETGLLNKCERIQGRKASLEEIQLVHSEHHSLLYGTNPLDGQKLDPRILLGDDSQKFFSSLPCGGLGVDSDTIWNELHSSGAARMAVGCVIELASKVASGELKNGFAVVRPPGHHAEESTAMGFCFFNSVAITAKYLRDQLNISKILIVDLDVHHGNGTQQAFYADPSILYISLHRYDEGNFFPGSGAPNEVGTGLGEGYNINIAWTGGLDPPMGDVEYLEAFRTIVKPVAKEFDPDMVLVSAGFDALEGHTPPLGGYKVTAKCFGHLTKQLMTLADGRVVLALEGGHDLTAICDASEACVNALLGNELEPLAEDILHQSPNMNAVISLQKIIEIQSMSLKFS
Procedure: HDAC9 Enzyme Inhibitory Assay
Enzyme was prepared by transducing full length HDAC9 gene into Sf-9 insect cells and purifying by Ni-NTA affinity column, and HDAC9 enzyme inhibitory activity was evaluated. Enzymes were used after preserved at −70° C. HDAC9 enzyme inhibitory activity of the test compound was measured using HDAC-Glo class IIa (Promega) according to the following experimental method. The test compound diluted with assay buffer (24 mM Tris-HCl (pH 7.5), 1 mM MgCl2, 0.35 mM KCl, 135 mM NaCl, 0.6 mM Glutathione, 0.01% Tween-20) was added to a 384-well plate by each 2 μL. Then, HDAC9 enzyme solution diluted with assay buffer was added thereto by each 2 μL, and the plate was incubated at room temperature for 60 min. After incubated, HDAC substrate-Developer solution prepared according to Promega protocol was added to the 384-well plate by each 4 μL, and the enzyme reaction was started. After reacting at room temperature for 20 min, luminescence level was measured using plate reader Envision (PerkinElmer). The inhibitory activity of each compound was calculated as a relative activity value when luminescence level in wells without enzyme is considered as 100% inhibition.

Row | inhibition at 1 µM [1] | inhibition at 1 µM [2] | inhibition at 1 µM [3] | Structure (SMILES)
1 | 15% | 95% | 79% | C[C@@H](c1ccccc1F)N1Cc2ccc(-c3noc(C(F)(F)F)n3)cc2C1=O [Example 15, 2-((1S)-1-(2-fluorophenyl)ethyl)-6-(5-(trifluoromethy)-1,2,4-oxadiazol-3-yl)isoindolin-1-one]
2 | 31% | 98% | 81% | COc1cccc(CN2Cc3ccc(-c4noc(C(F)(F)F)n4)cc3C2=O)c1 [Example 9, 2-(3-methoxybenzyl)-6-(5-(trifluoromethyl)-1,2,4-oxadiazol-3-yl)isoindolin-1-one]
3 | 16% | 95% | 66% | COc1cc(F)ccc1[C@H](C)N1Cc2ccc(-c3noc(C(F)(F)F)n3)cc2C1=O [Example 20, 2-((S)-1-(4-fluoro-2-methoxyphenyl)ethyl)-6-(5-(trifluoromethyl)-1,2,4-oxadiazol-yl)isoindolin-1-one]
4 | 14% | 90% | 79% | C[C@@H](c1ccc(F)cc1)N1Cc2ccc(-c3noc(C(F)(F)F)n3)cc2C1=O [Example 13, 2-((1S)-1-(4-fluorophenyl)ethyl)-6-(5-(trifluoromethyl)-1,2,4-oxadiazol-3-yl)isoindolin-1-one]
5 | 29% | 99% | 87% | COc1cccc([C@H](C)N2Cc3ccc(-c4noc(C(F)(F)F)n4)cc3C2=O)c1 [Example 19, 2-((1S)-1-(3-methoxyphenyl)ethyl)-6-(5-(trifluoromethyl)-1,2,4-oxadiazol-3-yl)isoindolin-1-one]
6 | 21% | 96% | 76% | O=C1c2cc(-c3noc(C(F)(F)F)n3)ccc2CN1Cc1c(F)cccc1F [Example 27, 2-(2,6-difluorobenzyl)-6-(5-(trifluoromethyl)-1,2,4-oxadiazol-3-yl)isoindolin-1-one]
7 | 9% | 88% | 76% | C[C@@H](c1ccc(Cl)cc1)N1Cc2ccc(-c3noc(C(F)(F)F)n3)cc2C1=O [Example 14, 2-((1S)-1-(4-chlorophenyl)ethyl)-6-(5-(trifluoromethyl)-1,2,4-oxadiazol-3-yl)isoindolin-1-one]
8 | 16% | 97% | 79% | CC(c1ccccn1)N1Cc2ccc(-c3noc(C(F)(F)F)n3)cc2C1=O (stereo not drawn) [Example 34]

Second part, the compound before the results:

Row | Structure (SMILES) | inhibition at 1 µM [1] | inhibition at 1 µM [2] | inhibition at 1 µM [3]
9 | O=C1c2cc(-c3noc(C(F)(F)F)n3)ccc2CN1Cc1ccccc1Oc1ccccc1 [Example 11, 2-(2-phenoxybenzyl)-6-(5-(trifluoromethyl)-1,2,4-oxadiazol-3-yl)isoindolin-1-one] | 4% | 68% | 5%
10 | N#Cc1cccc(CN2Cc3ccc(-c4noc(C(F)(F)F)n4)cc3C2=O)c1 [Example 28, 3-((1-oxo-6-(5-(trifluoromethyl)-1,2,4-oxadiazol-3-yl)-1,3-dihydro-2H-isoindol-2-yl)methyl)benzonitrile] | 26% | 95% | 82%
11 | CC(c1cccnc1)N1Cc2ncc(-c3noc(C(F)(F)F)n3)cc2C1=O (stereo not drawn) [Example 5, 6-(1-(pyridin-3-yl)ethyl)-3-(5-(trifluoromethyl)-1,2,4-oxadiazol-3-yl)-6,7-dihydro-5H-pyrrolo[3,4-b]pyridin-5-one] | 43% | 97% | 93%
12 | CS(=O)(=O)c1ccc(CN2Cc3ccc(-c4noc(C(F)(F)F)n4)cc3C2=O)cc1 [Example 30, 2-(4-(methylsulfonyl)benzyl)-6-(5-(trifluoromethyl)-1,2,4-oxadiazol-3-yl)isoindolin-1-one] | 30% | 94% | 83%
13 | C[C@@H](c1ccccc1)N1Cc2ncc(-c3noc(C(F)(F)F)n3)cc2C1=O [Example 40, 6-((1S)-1-phenylethyl)-3-(5-(trifluoromethyl)-1,2,4-oxadiazol-3-yl)-6,7-dihydro-5H-pyrrolo[3,4-b]pyridin-5-one] | 52% | 97% | 93%
14 | N#Cc1ccc(CN2Cc3ccc(-c4noc(C(F)(F)F)n4)cc3C2=O)cc1 [Example 29, 4-((1-oxo-6-(5-(trifluoromethyl)-1,2,4-oxadiazol-3-yl)-1,3-dihydro-2H-isoindol-2-yl)methyl)benzonitrile] | 23% | 94% | 74%
15 | O=C1c2cc(-c3noc(C(F)(F)F)n3)cnc2CN1Cc1cccnc1 [Example 4, 6-(pyridin-3-ylmethyl)-3-(5-(trifluoromethyl)-1,2,4-oxadiazol-3-yl)-6,7-dihydro-5H-pyrrolo[3,4-b]pyridin-5-one] | 43% | 93% | 93%
16 | COc1ncccc1CN1Cc2ccc(-c3noc(C(F)(F)F)n3)cc2C1=O [Example 33, 2-((2-methoxypyridin-3-yl)methyl)-6-(5-(trifluoromethyl)-1,2,4-oxadiazol-3-yl)isoindolin-1-one] | 19% | 98% | 77%
17 | O=C1c2cc(-c3noc(C(F)(F)F)n3)ccc2CN1Cc1cccc(Oc2ccccc2)c1 [Example 10, 2-(3-phenoxybenzyl)-6-(5-(trifluoromethyl)-1,2,4-oxadiazol-3-yl)isoindolin-1-one] | 15% | 28% | 52%
18 | O=C1c2cc(-c3noc(C(F)(F)F)n3)ccc2CN1Cc1ccccc1OC(F)(F)F [Example 26, 2-(2-(trifluoromethoxy)benzyl)-6-(5-(trifluoromethyl)-1,2,4-oxadiazol-3-yl)isoindolin-1-one] | 8% | 95% | 58%
19 | Cc1cc(CN2Cc3ccc(-c4noc(C(F)(F)F)n4)cc3C2=O)nn1C [Example 38, 2-((1,5-dimethyl-1H-pyrazol-3-yl)methyl)-6-(5-(trifluoromethyl)-1,2,4-oxadiazol-3-yl)isoindolin-1-one] | 23% | 97% | 85%
